Measured values reported in article PMC4884932, “Selective brain penetrable Nurr1 transactivator for treating Parkinson's disease” (Oncotarget, 2016).

Tests used:
primary VMB neurons = assay: Nurr1 downstream gene expression in VMB neurons (real time PCR); type: cell-based, mouse; settings: 1nM, 16 hours
Description: Ventral midbrain (VMB) from E13.5-14.5 C57BL/6 mouse embryos were dissected, triturated and plated on poly-D-lysine coated 12 well plates or glass coverslips with the serum-free chemically-defined Neurobasal medium, supplemented with 2% B27, 0.5mM L-glutamine, 50I.U./ml penicillin and 50μg/ml streptomycin (Gibco-BRL). […] For each time point, cells were washed once with phosphate buffered saline and fixed with 4% paraformaldehyde for TH immunofluorescent staining. For cell counting, 10 frames were randomly captured from each well using a Leica fluorescent microscope and a minimum of four replicates for each dose and each time point were analyzed for each experiment.
Total RNA from VMB neurons or rat substantia nigra were isolated using the RNeasy Mini Kit from Qiagen (Valencia, CA) and 1μg of total RNA was reverse transcribed using SuperScript III first-strand synthesis supermix for qRT-PCR from Invitrogen (Carlsbad, CA) according to the manufacturer's instruction. Quantitative RT-PCR was performed using Maxima SYBR Green master mix (Fermentas) in ABI Prism 7900HT in four replicates with primers amplifying the target genes. Expression level of actin was used as an internal control. Data were normalized using the 2^−ΔΔCt method. Levels of target gene mRNAs were expressed relative to those in vehicle control groups and plotted in GraphPad Prism.

6-OHDA lesioned rats = assay: Dopamine and metabolites in the striatum by HPLC, 6-OHDA lesioned rats; type: in vivo, rat; settings: 10mg/kg/day gavage for three weeks, p < 0.01
Description: All surgical procedures were performed under general anesthesia with ketamine/xylazine. 2μl 6-OHDA (20 mg/ml in 0.02% ascorbic acid) was stereotaxically injected into the right striatum of male SD rats. Lesion coordinates were set according to bregma and dura in mm: ML-3.7; AP-1.0; DV-5.5. The injection rate was 2μl/5 min and the injecting needle was left for 2 minutes after injection to avoid back flow. Apomorphine-induced rotations (see below) were assessed three days post-lesion and rats with ≥ 30 full contralateral rotation/30 minutes were included in the study.
Rats were randomly grouped into vehicle control group (n = 11) and drug treatment group (n = 10). […] The control group received DMSO/corn oil (vehicle). […]
The left and right striatum were isolated and homogenized with artificial cerebrospinal fluid and centrifuged at x10,000 g for 15 minutes. Protein content of the supernatant was measured by Bradford assay (Bio-Rad). Dopamine, HVA and DOPAC were measured using an isocratic HPLC system with electrochemical detection, consisting of a pump (ESA model 582 [ESA Chelmsford, MA]), automatic injector (ESA model 542 Autosampler), and a Coulochem III detector (ESA) in conjunction with a guard cell (ESA model 5020) and an analytical cell (ESA model 5014B). […] Data were collected and analyzed using the EZStart software (Agilent Technologies, Santa Clara, CA). […]

[1] = molecular target: T1, farnesoid X receptor (FXR) (Homo sapiens, UniProt Q96RI1); assay: Receptor transactivation assay, FXR (CV-1 cells, FXR and RXRα vectors); type: cell-based; settings: at physiological concentrations
T1 sequence (Q96RI1 1-486): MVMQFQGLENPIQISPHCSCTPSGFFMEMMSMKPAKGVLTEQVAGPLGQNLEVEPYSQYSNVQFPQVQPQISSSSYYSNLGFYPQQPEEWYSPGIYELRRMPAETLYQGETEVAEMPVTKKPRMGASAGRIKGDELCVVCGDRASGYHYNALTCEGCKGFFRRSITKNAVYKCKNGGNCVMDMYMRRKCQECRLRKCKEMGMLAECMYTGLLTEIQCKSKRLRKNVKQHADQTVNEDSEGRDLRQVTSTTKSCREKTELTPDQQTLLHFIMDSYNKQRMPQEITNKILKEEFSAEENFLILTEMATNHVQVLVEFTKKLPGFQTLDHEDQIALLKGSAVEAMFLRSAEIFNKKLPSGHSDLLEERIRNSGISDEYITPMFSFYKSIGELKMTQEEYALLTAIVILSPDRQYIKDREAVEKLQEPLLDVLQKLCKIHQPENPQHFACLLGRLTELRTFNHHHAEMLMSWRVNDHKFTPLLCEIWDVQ
T1 sequence (P19793 1-462 partner): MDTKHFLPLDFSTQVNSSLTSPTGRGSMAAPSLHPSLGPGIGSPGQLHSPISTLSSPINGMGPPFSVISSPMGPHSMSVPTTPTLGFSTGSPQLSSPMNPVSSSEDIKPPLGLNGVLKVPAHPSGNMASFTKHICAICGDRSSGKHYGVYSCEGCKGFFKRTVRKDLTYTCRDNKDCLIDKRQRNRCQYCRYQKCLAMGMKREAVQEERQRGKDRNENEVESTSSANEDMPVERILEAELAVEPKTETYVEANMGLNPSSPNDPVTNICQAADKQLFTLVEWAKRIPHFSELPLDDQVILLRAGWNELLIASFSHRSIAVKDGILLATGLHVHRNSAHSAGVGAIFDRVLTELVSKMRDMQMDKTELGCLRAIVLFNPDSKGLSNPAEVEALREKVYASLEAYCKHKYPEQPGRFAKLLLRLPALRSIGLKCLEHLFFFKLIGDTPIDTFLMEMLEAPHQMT
Description: For RXR: CV-1 cells were transfected with rCRBPII/RXRE-tk-Luc reporter gene and an expression vector for RXRα, β, or γ. For RAR: CV-1 cells were transfected with ERE-tk-Luc reporter gene and an expression vector for the appropriate ER-RARα, β, or γ. ER-RARs are fusion proteins, composed of the estrogen receptor (ER) DNA binding domain fused to the ligand binding domain of RARs. This system eliminates interference by the low level of endogenous RAR activity in CV1 cells as the readout comes only from the transfected ER-RAR. For PPARγ: CV-1 cells were transfected with 3x(rAOX/DR1)-tk-Luc reporter gene and an expression vector for PPARγ; for FXR: CV-1 cells were transfected with 3x(IBABP/IR1)-tk-Luc reporter gene and vectors for FXR and RXRα; for LXR: CV-1 cells were transfected with 3x(PLTP/LXRE)-tk-Luc reporter gene with vectors for LXRα or LXRβ. For Nurr1: COS7 cells were transfected with 3xNBRE-tk-luc reporter gene and full length Nurr1 with or without full-length RXRα plasmid. […] Luciferase data were normalized to co-transfected β-gal activity. Luciferase activity is expressed as percent of maximal activity obtained using specific agonists 9-cis-retinoic acid (RXR), retinoic acid (RAR), rosiglitazone (PPARγ), GW4064 (FXR), T0901317 (LXR).

With `CC(/C=C/[C@@H]1C[C@]1(C)c1ccc2c(c1)C(C)(C)CCC2(C)C)=C\C(=O)O` [IRX4204] the “expression of dopa-decarboxylase (DDC)” value (primary VMB neurons) was “significantly increased”, the “expression of dopamine transporter (DAT)” value (primary VMB neurons) was “significantly increased” and the “striatal dopamine loss in the lesioned side” value (6-OHDA lesioned rats) was “much greater in the vehicle-treated group relative to the IRX4204 group”. For the same compound, the “activation of RXR heterodimer of FXR” value [1] was “does not activate”.
